Where two headings read alike, the source gives them in different places. Positions of bridges follow the written chain, without caps; N, C: chain ends. Chains are numbered I, II in the order given.
What was measured:
[1] = target: T1, IL-4Rα (extracellular domain, IL4BP) (Homo sapiens, UniProt P24394, Q231C); test: biosensor-based binding experiments (BIA2000 system) on immobilised IL-4 binding protein
T1 sequence (P24394 26-232 Q231C): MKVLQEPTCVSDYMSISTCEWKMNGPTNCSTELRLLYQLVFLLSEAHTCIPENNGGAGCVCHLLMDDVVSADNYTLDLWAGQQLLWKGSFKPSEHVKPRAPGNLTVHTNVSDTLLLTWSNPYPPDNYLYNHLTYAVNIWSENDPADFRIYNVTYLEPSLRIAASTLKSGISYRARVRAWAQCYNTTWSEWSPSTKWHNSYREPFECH
Text: All the peptides were synthesized by solid phase methods, aminated on the C-terminus and acetylated on the N-terminus. The activity of the peptides was investigated by biosensor-based binding experiments using the BIA2000 system (Pharmacia Biosensor), at room temperature. […] An extensive study of the role of disulfide bridges in the stability of coiled-coil structures and proteins in general is available in the literature (86-88).

[2] = temperature-induced denaturation followed by Circular Dichroism; assay type: physicochemical; conditions: for stability / midpoint transition temperature (Tm), in words: CD at 222 nm
Text: Upon fitting the experimental data, the midpoint transition temperature (Tm) can be obtained.

## Ac-RMKQLEKKVERLLKRNYRLEWEVIRLKKLVG-NH2 [MAR-IL-4]
[1]
  Kd: 26 µM
[2]
  stability / midpoint transition temperature (Tm), in words: cooperative temperature induced transition characteristic of a folded protein
[2]; low peptide concentrations used to measure binding
  temperature at which the peptide starts losing its structure: 25 °C

## I: Ac-RMKQLEKKVERCLKRLYRNEWEVIRLKKLVG-NH2 / II: Ac-RMKQLEKKVERCLKRLYRNEWEVIRLKKLVG-NH2 (disulfide I:12-II:12) [Model 12CNMAR-IL4]
[1]; relative to peptide bearing cysteine at position 12
  binding affinity relative to parent peptide: binding affinity is not affected
[2]
  stability / midpoint transition temperature (Tm), in words: significant drop in the stability

## I: Ac-RMKQLEKKVERCLKRNYRLEWEVIRLKKLVG-NH2 / II: Ac-RMKQLEKKVERCLKRNYRLEWEVIRLKKLVG-NH2 (disulfide I:12-II:12) [Model 12CMAR-IL4]
[1]; relative to MAR-IL4
  increase in the binding affinity to IL-4Rα: 5 fold

## RMKQLEDKVEELLSKNYRLENRVARLEKLVG [Model 1]
[1]; room temperature (25° C.), immobilised biotinylated IL4BP
  Kd: 105597

Reference: patent publication US6685932B1, “Coiled-coil dimer derived antagonists of 4-helix bundle cytokines, design and uses thereof” (Europaisches Laboratorium Molekularbiologie, priority 1997, dated 2004)
